{"source": "paper PMC12309256", "about": "(Current Research in Microbial Sciences, 2025)", "system": "AsDddY", "assay": "HPLC of acrylate, initial rates, nonlinear Michaelis-Menten fit", "type": "biochemical, Acinetobacter sp. ZS25", "details": "pH 8.0, 50 °C; 0.5 nM enzyme; DMSP 1-20 mM"}
{"smiles": "C[S+](C)CCC(=O)[O-]", "note": "[DMSP, dimethylsulfoniopropionate]", "values": [{"measurement": "Km", "result": 2600, "unit": "µM"}]}
